Measurements reported in PMC4436593, “Endoplasmic reticulum stress-independent activation of unfolded protein response kinases by a small molecule ATP-mimic” (eLife, 2015).

What was measured:
[1] = test system: XBP1 mRNA splicing in HEK293T cells; assay: XBP1 mRNA splicing by RT-PCR in HEK293T cells; format: cell-based, human; settings: for XBP1 mRNA splicing (in words): IPAx 2 µM, 4 hr
Protocol: To examine the effects of IPA in living cells, we monitored the UPR in HEK293T cells using RT-PCR to measure splicing of XBP1 mRNA. […] At a concentration of 2 μM IPA, splicing was induced within 2 hr (lane 5). […] We used tunicamycin (Tm), which induces ER stress by blocking N-linked glycosylation, as a positive control to induce the UPR (Figure 2A, lanes 7, and Figure 2B, lane 4).
Cells were lysed and total RNA was collected (Total RNA Kit 1, EZ-RNA, EZNA [USA]). PolyA^+ mRNA was reverse transcribed with M-MLV (Invitrogen), and the resulting cDNA was used as a template for PCR amplification across the fragment of XBP1 cDNA containing the intron. Primers used to amplify human XBP1: 5′-[…]-3′ and 5′-[…]-3′. To amplify murine XBP1: 5′-[…]-3′ and 5′-[…]-3′. PCR conditions were as follows: 95°C for 5 min, 95°C for 1 min, 58°C for 30 s, 72°C for 30 s, and 72°C for 5 min, with 20 cycles of amplification. PCR products were resolved on a 2.5% agarose tris-acetate EDTA (TAE) gel. As previously reported, a hybrid amplicon species consisting of unspliced Xbp-1 annealed to spliced Xbp-1 can also be produced through this PCR reaction and was visible as a slower migrating band above the unspliced amplicon. The same cDNA was used as template for PCR of DERLIN-3 and HERPUD1, both ATF6 targets, and GAPDH, which was used as loading control. Primers used included the following: DERLIN-3, 5′-[…]-3′ and 5′-[…]-3′; HERPUD1-1, 5′-[…]-3′ and 5′-[…]-3′; GAPDH, 5′-[…]-3′ and 5′-[…]-3′. PCR conditions were: 95°C × 5 min, 95°C × 1 min, 56°C × 30 s, 72°C for 30 s for 25 cycles, 72°C for 5 min at 4°C. PCR products were resolved on a 2% agarose TAE gel.

[2] = test system: PERK and eIF2α phosphorylation in HEK293T cells; assay: PERK mobility shift and eIF2α phosphorylation by immunoblotting in HEK293T cells; format: cell-based
Protocol: To evaluate effects of IPA on the PERK branch, we measured the phosphorylation state of PERK and eIF2α by Western blotting. […] We also monitored PERK activation by phosphorylation of eIF2α, detected with a phospho-eIF2α-specific antibody (Figure 3C).
Cells were lysed in 50 mM Tris-HCl, 2% SDS, 10% glycerol, 0.01% bromophenol blue, pH 6.8 supplemented with phosphatase inhibitors (Sigma) and protease inhibitors (Roche). 30 μg to 50 μg of total protein was loaded on each lane of 8% or 10% SDS-PAGE gels. The separated proteins were then transferred onto nitrocellulose membranes for immunoblotting. The following antibodies and dilutions were used: anti-β-actin 1:10,000 (A5441, Sigma), anti-total PERK at 1:1000 (C33E10, Cell Signaling Technology), anti-phospho eIF2α at 1:1000 (3597S, Cell Signaling Technology), anti-total eIF2α at 1:1000 (L57A5, Cell Signaling Technology). After overnight incubation with primary antibody, membranes were washed in PBS with 0.05% Tween and incubated in HRP-coupled secondary antibody anti-rabbit (611–1302, Rockland) or anti-mouse (610–1302, Rockland) diluted at 1:5000 in wash buffer. Immunoreactive bands were detected by chemiluminescence.

IRE1α-KR43 = IRE1α-KR43 (Homo sapiens, UniProt O75460); assay: IRE1α-KR43 RNA cleavage assay with 5′ [32P]-labeled RNA substrate HP21 (kobs, single turnover); format: biochemical; design: IRE1α-KR43 comprises the soluble cytoplasmic portion of IRE1α, composed of the kinase and RNase domains plus 43 amino acids of the linker; 6xHis (N, cleaved yes); made in house; host or cells: SF21 insect cells; settings: for 1/2kmax, obs (IRE1α-KR43 concentration at half-maximal kobs) / Hill coefficient n: RNase activity as a function of IRE1α-KR43 concentration
Protocol: To this end, we modified the molecule by substituting urea-linked and variably m- and p-substituted phenyl groups for the benzimidazole of APY29. Diphenyl urea linkers have previously been used successfully in the design of kinase inhibitors ([Dar et al., 2008]; [Dar and Shokat, 2011]; [Korennykh et al., 2012]). In exploring the addition of this chemotype on the APY29 scaffold, we generated a panel of 10 variants (Figure 1B). Each member of the panel was tested in an RNase activity assay using recombinant IRE1α-KR43 and a labeled short hairpin RNA substrate derived from human XBP1 mRNA. IRE1α-KR43 comprises the soluble cytoplasmic portion of IRE1α, composed of the kinase and RNase domains plus 43 amino acids of the linker that bridges the kinase to its transmembrane domain.
Human IRE1α-KR43 with a hexa-histidine (6xHis) tag in its N-terminus was expressed and purified in SF21 cells as described ([Li et al., 2010]). Cells were lysed in buffer containing 20 mM Tris-HCl, pH 7.5, 600 mM NaCl, 2 mM MgCl2, 3 mM imidazole, 10% glycerol, 1% Triton X-100, 3 mM β-mercaptoethanol, COMPlete protease inhibitors (Roche), and PhosSTOP phosphatase inhibitor cocktail (Roche) and passed through an AVESTIN emulsiflex-C3 3× times for complete lysis. The lysate was cleared using centrifugation at 100,000×g. Clear lysate was allowed to incubate on Ni-NTA agarose (Qiagen) beads for 2 hr before being washed 3× times with buffer containing 20 mM Tris-HCl, pH7.5, 600 mM NaCl, 2 mM MgCl2, 30 mM imidazole, 10% glycerol, and 3 mM β-mercaptoethanol. Protein was eluted from the column by raising the imidazole concentration to 250 mM. The eluate was then passed through a HiTrap desalting column (GE Healthcare). Lastly, the 6xHis was cleaved as described ([Li et al., 2010]) and the resulting protein was then loaded onto a HisTrap HP, 5 × 5 ml column to remove the uncleaved protein. The cleaved protein was then loaded on a Mono-S 5/50 GL column (GE Healthcare), and the eluate was then concentrated to 5 mg/ml and loaded on a Superdex 200 HR 10/300 (GE Healthare) column in buffer containing 20 mM Tris-HCl pH 7.5, 250 mM NaCl, 5% Glycerol and 5 mM tris(2-carboxyethyl)phosphine (TCEP). The pure protein solution was aliquoted and stored at −80°C.

Chain of IRE1α-KR43 (O75460 465-977 limits assumed): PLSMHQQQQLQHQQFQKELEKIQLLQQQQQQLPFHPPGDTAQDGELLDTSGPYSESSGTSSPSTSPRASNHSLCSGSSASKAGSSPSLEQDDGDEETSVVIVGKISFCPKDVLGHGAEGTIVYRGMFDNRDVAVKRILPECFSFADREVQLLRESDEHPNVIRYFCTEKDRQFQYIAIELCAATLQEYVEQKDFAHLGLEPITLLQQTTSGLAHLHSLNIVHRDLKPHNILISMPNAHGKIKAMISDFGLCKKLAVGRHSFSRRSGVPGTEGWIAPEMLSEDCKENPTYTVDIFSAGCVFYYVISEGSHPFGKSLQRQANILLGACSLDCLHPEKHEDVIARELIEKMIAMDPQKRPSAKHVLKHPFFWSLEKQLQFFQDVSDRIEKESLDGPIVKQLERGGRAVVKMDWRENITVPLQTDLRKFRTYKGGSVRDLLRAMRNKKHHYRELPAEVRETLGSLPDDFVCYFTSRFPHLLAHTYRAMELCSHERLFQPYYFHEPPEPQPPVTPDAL

Row | SMILES | time until XBP1 mRNA splicing was induced ([1]; 2 μM IPA) [h] | XBP1 mRNA splicing (in words) [1] | Tm activation of PERK in the presence of compound ([2]; 4 μM IPA + Tm 2 µg/ml) | PERK phosphorylation (mobility shift), paralleled by eIF2α phosphorylation ([2]; 4 hr, 0.1, 0.5, and 1 µM) | PERK phosphorylation (mobility shift), paralleled by eIF2α phosphorylation ([2]; 4 hr, 2 and 4 μM) | reversibility of PERK inhibition (wash-out) ([2]; IPA wash-out then Tm) | fold lower enzyme concentration at ½ kmax, obs versus no activator (IRE1α-KR43; compound 20 μM) [fold] | 1/2kmax, obs (IRE1α-KR43 concentration at half-maximal kobs) (IRE1α-KR43; compound 20 μM) [µM] | Hill coefficient n (IRE1α-KR43; compound 20 μM) | fold activation of IRE1α-KR43 RNase activity (IRE1α-KR43; compounds 1 μM, IRE1α-KR43 200 nM, [32P]-labeled HP21) [fold] | PERK or eIF2α phosphorylation ([2]; 4 hr, 1 µM) | IRE1α activation as a function of enzyme concentration (in words) (IRE1α-KR43; compound 20 μM, versus no-compound control) | IRE1α RNase activation (in words) (IRE1α-KR43; compounds 1 μM, IRE1α-KR43 200 nM, versus DMSO control or cmp6/cmp7)
1 | CSc1ccc(NC(=O)Nc2ccc(Nc3nccc(Nc4cc(C5CC5)[nH]n4)n3)cc2)cc1 [IPA] | ≤ 2 | induced XBP1 mRNA splicing in a time- and dose-dependent manner | Tm addition did not activate PERK | induced a shift in the mobility of PERK | severely diminished or not detectable | reversible | 20 | 0.43 | 4.2 | 900 |  |  | 
2 | CSc1ccc(NC(=O)Nc2ccc(Nc3nccc(Nc4cc(C5CC5)n(C)n4)n3)cc2)cc1 [IPAx] |  | did not induce XBP1 mRNA splicing |  |  |  |  |  | 8 | 3.3 |  | did not stimulate PERK or eIF2α phosphorylation | did not enhance IRE1α activation | inactive
